Format in all cases: cell-based
The target of experiment [1] is T1, A20′S mutant Drosophila RDL receptor (Drosophila melanogaster, UniProt P25123, A319S).
T1 construct: expressed in transfected cells; host or cells: Xenopus laevis oocytes injected with cRNA
T1 sequence (P25123 45-606 A319S): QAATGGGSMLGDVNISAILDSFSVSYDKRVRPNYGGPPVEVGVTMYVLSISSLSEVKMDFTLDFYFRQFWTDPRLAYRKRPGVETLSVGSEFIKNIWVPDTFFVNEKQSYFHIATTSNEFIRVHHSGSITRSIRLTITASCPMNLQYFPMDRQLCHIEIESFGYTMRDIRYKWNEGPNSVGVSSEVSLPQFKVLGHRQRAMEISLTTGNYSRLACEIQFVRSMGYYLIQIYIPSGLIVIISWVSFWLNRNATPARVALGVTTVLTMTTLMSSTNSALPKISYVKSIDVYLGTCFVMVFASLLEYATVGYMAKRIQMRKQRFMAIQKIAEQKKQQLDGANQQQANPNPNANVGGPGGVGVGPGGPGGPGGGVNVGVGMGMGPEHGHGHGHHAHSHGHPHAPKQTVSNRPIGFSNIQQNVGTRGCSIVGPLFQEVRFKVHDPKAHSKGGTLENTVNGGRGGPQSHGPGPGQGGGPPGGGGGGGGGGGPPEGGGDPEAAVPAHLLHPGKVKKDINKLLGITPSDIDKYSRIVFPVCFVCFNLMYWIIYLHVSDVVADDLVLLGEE
In words: Thymol modulation of GABA concentration-response curves, two electrode voltage clamp in Xenopus oocytes. The method, then: (§1) X. laevis oocyte-positive females were purchased from NASCO (Fort Atkinson, Wisconsin, USA) and maintained according to standard methods. Harvested stage V-VI Xenopus oocytes were washed in four changes of ND96 (96 mM NaCl, 2 mM KCl, 1 mM MgCl2, 1 mM CaCl2, 5 mM HEPES, pH 7.5), de-folliculated in 1.5 mg ml^−1 collagenase Type 1A for approximately 2 h, washed again in four changes of ND96 and stored in ND96 containing 2.5 mM sodium pyruvate, 0.7 mM theophylline and […].
(§2) Site directed mutagenesis was performed with the QuikChange mutagenesis kit (Agilent, La Jolla, CA). cRNA was transcribed in vitro from linearised pGEMHE cDNA template using the mMessage mMachine T7 Transcription kit (Ambion, Austin, Texas, USA). Stage V and VI oocytes were injected with 5 ng cRNA, incubated at 18 °C, and currents recorded 18–24 h post-injection.
(§3) Currents were recorded at 5 kHz and filtered at a frequency of 1 kHz. Micro-electrodes were fabricated from borosilicate glass (GC120TF-10, Harvard Apparatus, Edenbridge, Kent, UK) using a one stage horizontal pull (P-87, Sutter Instrument Company, California, USA) and filled with 3 M KCl. […] Oocytes were perfused with ND96 at a constant rate of 12 ml min^−1. Drug application was via a simple gravity fed system calibrated to run at the same rate.
(§4) Analysis and curve fitting was performed using Prism v5 (GraphPad Software, San Diego, California, USA). Concentration-response data for each oocyte was normalised to the maximum current for that oocyte. The mean and S.E.M. for a series of oocytes were fitted to the four parameter logistic equation in Prism.
(Two-electrode voltage clamp is typically applied to oocytes expressing channels or transporters.)

Experiment [2] deals with T2, T6′M mutant Drosophila RDL receptor (Drosophila melanogaster, UniProt P25123, T305M).
T2 construct: expressed in transfected cells; host or cells: Xenopus laevis oocytes injected with cRNA
T2 sequence (P25123 45-606 T305M): T1 sequence (P25123 45-606 A319S) with T261M, S275A
The description is as above. As for the experimental part:
as §1, §2, §3, §4

Experiment [3] concerns the target T3, N-7′H mutant Drosophila RDL receptor (Drosophila melanogaster, UniProt P25123, N292H).
T3 construct: expressed in transfected cells; host or cells: Xenopus laevis oocytes injected with cRNA
T3 sequence (P25123 45-606 N292H): T1 sequence (P25123 45-606 A319S) with N248H, S275A
The experiment is described as follows: GABA activation of RDL receptors, two electrode voltage clamp in Xenopus oocytes. The following applies: N-7′H RDL. As for the experimental part: as §1, §2, §3, §4

[4] abbreviates: GABA EC50 control vs +100 μM thymol.
Setting [5] is: GABA concentration-response in presence of 100 μM thymol.

Residue numbers refer to the chain shown, from its start.

As for `Cc1ccc(C(C)C)c(O)c1` [Thymol, thymol], the “Effect of thymol on GABA-induced responses” value is listed as “enhance” in experiment [1] (100 μM thymol, 1 μM GABA) and “inhibition” in experiment [2] (100 μM thymol, at some GABA concentrations). Besides, the results for the “Fold change in EC50” value in experiment [1] (setting [4]) and in experiment [2] (setting [4]) were 5.0 and 3.4, respectively. Moreover, the “% Imax” value stood at 81 ± 6% in experiment [1] (setting [5]) and 35 ± 9% in experiment [2] (setting [5]).
On to `NCCCC(=O)O` [GABA], for which the “GABA nH (Hill slope)” value in experiment [3] came out at 2.5 ± 0.5.

For the origin of these results see publication PMC4261083, “An atypical residue in the pore of Varroa destructor GABA-activated RDL receptors affects picrotoxin block and thymol modulation” (Insect Biochemistry and Molecular Biology, 2014).
